Values after ≈ are worked out from the molar mass of the structure shown. Active and inactive are the calls of the source. No cut-off for these calls is given here.
Experiments:
Brugia malayi [1] = test: Antifilarial activity against Brugia malayi adult worm assessed as reduction in motility at 0.625 uM after 5 days by MTT dye reduction assay; format: functional; conditions: 120 h
[2] = Cytotoxicity against African green monkey Vero cells after 72 hrs by resazurin dye-based fluorescence assay; format: cell-based; conditions: chlorocebus sabaeus, Vero cells
Brugia malayi [3] = test: Antifilarial activity against Brugia malayi adult worm assessed as reduction in motility after 5 days by MTT dye reduction assay; format: functional, organism-based
Brugia malayi [4] = test: Antifilarial activity against Brugia malayi microfilaria assessed as reduction in motility at 1.25 uM after 5 days by MTT dye reduction assay; format: functional; conditions: 120 h
Brugia malayi [5] = test: Antifilarial activity against Brugia malayi microfilaria assessed as reduction in motility after 5 days by MTT dye reduction assay; format: functional, organism-based
Brugia malayi [6] = test: Antifilarial activity against Brugia malayi adult worm infected in jird model assessed as sterile female at 100 mg/kg, sc after 5 days measured till day 45 relative to control; format: functional; conditions: route subcutaneous
Brugia malayi [7] = test: Antifilarial activity against Brugia malayi microfilariae infected in jird model assessed as microfilaricidal activity at 100 mg/kg, sc after 5 days measured till day 45 relative to control; format: functional; conditions: route subcutaneous
Brugia malayi [8] = test: Antifilarial activity against Brugia malayi adult worm assessed as reduction in motility at 5 uM after 5 days by MTT dye reduction assay; format: functional; conditions: 120 h
Brugia malayi [9] = test: Antifilarial activity against Brugia malayi microfilaria assessed as reduction in motility at 0.625 uM after 5 days by MTT dye reduction assay; format: functional; conditions: 120 h
[10] = Selectivity index, ratio of CC50 for African green monkey Vero cells to IC50 for Brugia malayi microfilaria; format: functional
Brugia malayi [11] = test: Antifilarial activity against Brugia malayi microfilaria assessed as reduction in motility at 5 uM after 5 days by MTT dye reduction assay; format: functional; conditions: 120 h
[12] = Selectivity index, ratio of CC50 for African green monkey Vero cells to IC50 for Brugia malayi adult worm; format: functional
Brugia malayi [13] = test: Antifilarial activity against Brugia malayi adult worm assessed as reduction in motility at 2.5 uM after 5 days by MTT dye reduction assay; format: functional; conditions: 120 h
Brugia malayi [14] = test: Antifilarial activity against Brugia malayi adult worm assessed as reduction in motility at 1.25 uM after 5 days by MTT dye reduction assay; format: functional; conditions: 120 h
Brugia malayi [15] = test: Antifilarial activity against Brugia malayi microfilaria assessed as reduction in motility at 2.5 uM after 5 days by MTT dye reduction assay; format: functional; conditions: 120 h
Brugia malayi [16] = test: Antifilarial activity against Brugia malayi adult worm infected in jird model assessed as adulticidal activity at 100 mg/kg, sc after 5 days measured till day 45 relative to control; format: functional; conditions: route subcutaneous
Brugia malayi [17] = test: Antifilarial activity against Brugia malayi microfilaria assessed as reduction in motility at 0.019 uM after 5 days by MTT dye reduction assay; format: functional; conditions: 120 h
Brugia malayi [18] = test: Antifilarial activity against Brugia malayi adult worm assessed as reduction in motility at 0.078 uM after 5 days by MTT dye reduction assay; format: functional; conditions: 120 h
Brugia malayi [19] = test: Antifilarial activity against Brugia malayi adult worm assessed as reduction in motility at 0.156 uM after 5 days by MTT dye reduction assay; format: functional; conditions: 120 h
Brugia malayi [20] = test: Antifilarial activity against Brugia malayi microfilaria assessed as reduction in motility at 0.039 uM after 5 days by MTT dye reduction assay; format: functional; conditions: 120 h
Brugia malayi [21] = test: Antifilarial activity against Brugia malayi adult worm assessed as reduction in motility at 0.019 uM after 5 days by MTT dye reduction assay; format: functional; conditions: 120 h
Brugia malayi [22] = test: Antifilarial activity against Brugia malayi microfilaria assessed as reduction in motility at 0.156 uM after 5 days by MTT dye reduction assay; format: functional; conditions: 120 h
Brugia malayi [23] = test: Antifilarial activity against Brugia malayi adult worm assessed as reduction in motility at 0.039 uM after 5 days by MTT dye reduction assay; format: functional; conditions: 120 h
Brugia malayi [24] = test: Ratio of ivermectin IC50 to compound IC50 for Brugia malayi microfilariae; format: functional
Brugia malayi [25] = test: Antifilarial activity against Brugia malayi microfilaria assessed as reduction in motility at 0.312 uM after 5 days by MTT dye reduction assay; format: functional; conditions: 120 h
Brugia malayi [26] = test: Ratio of ivermectin IC50 to compound IC50 for Brugia malayi adult worm; format: functional
Brugia malayi [27] = test: Antifilarial activity against Brugia malayi adult worm assessed as reduction in motility at 0.312 uM after 5 days by MTT dye reduction assay; format: functional; conditions: 120 h
Brugia malayi [28] = test: Antifilarial activity against Brugia malayi microfilaria assessed as reduction in motility at 0.078 uM after 5 days by MTT dye reduction assay; format: functional; conditions: 120 h
Brugia malayi [29] = test: Antifilarial activity against Brugia malayi adult worm assessed as reduction in motility at 0.19 uM after 5 days by MTT dye reduction assay; format: functional; conditions: 120 h
Brugia malayi [30] = test: Antifilarial activity against Brugia malayi microfilaria assessed as reduction in motility at 0.19 uM after 5 days by MTT dye reduction assay; format: functional; conditions: 120 h
Brugia malayi [31] = test: Antifilarial activity against Brugia malayi adult worm assessed as reduction in motility at 10 uM after 5 days by MTT dye reduction assay; format: functional, organism-based
Brugia malayi [32] = test: Antifilarial activity against Brugia malayi microfilaria assessed as reduction in motility at 10 uM after 5 days by MTT dye reduction assay; format: functional, organism-based

MIC (Brugia malayi [3]; Brugia malayi, 120 h) [µM]	MIC (Brugia malayi [5]; Brugia malayi, 120 h) [µM]	Structure (SMILES)	inhibition at 0.625 µM (Brugia malayi [1]) [%]	CC50 at 72 h [2] [nM]	IC50 (Brugia malayi [3]; Brugia malayi, 120 h) [nM]	inhibition at 1.25 µM (Brugia malayi [4]) [%]	IC50 (Brugia malayi [5]; Brugia malayi, 120 h) [nM]	Activity (Brugia malayi [6]) [%]	Activity (Brugia malayi [7]) [%]	inhibition at 5 µM (Brugia malayi [8]) [%]	inhibition at 0.625 µM (Brugia malayi [9]) [%]	Ratio CC50/IC50 [10]	inhibition at 5 µM (Brugia malayi [11]) [%]	Ratio CC50/IC50 [12]	inhibition at 2.5 µM (Brugia malayi [13]) [%]	inhibition at 1.25 µM (Brugia malayi [14]) [%]	inhibition at 2.5 µM (Brugia malayi [15]) [%]	Activity (Brugia malayi [16]) [%]	inhibition at 0.312 µM (Brugia malayi [25]) [%]	inhibition at 0.312 µM (Brugia malayi [27]) [%]	other results
5 (≈ 1.38 µg/mL)	2.5 (≈ 0.688 µg/mL)	O=c1cc(OCC(O)CNC2CC2)c2ccccc2o1 (stereo not drawn)	34.3	> 100000	880	75	380	0	31.4	97.5	75	>263.15	100	>113.6	56.4	43.7	75	52.8			
1.25 (≈ 0.504 µg/mL)	0.625 (≈ 0.252 µg/mL)	CCCCCCCCCCCCNCC(O)COc1cc(=O)oc2ccccc12 (stereo not drawn)	92.4	> 100000	14	100	5.6	19.3	50.8		75	>17857		>7142		99.5		74.9	75	90.8	inhibition at 0.019 µM (Brugia malayi [17]): 50%; inhibition at 0.078 µM (Brugia malayi [18]): 56%; inhibition at 0.156 µM (Brugia malayi [19]): 75.5%; inhibition at 0.039 µM (Brugia malayi [20]): 75%; inhibition at 0.019 µM (Brugia malayi [21]): 30%; inhibition at 0.156 µM (Brugia malayi [22]): 75%; inhibition at 0.039 µM (Brugia malayi [23]): 50%; Ratio IC50 (Brugia malayi [24]): 714; Ratio IC50 (Brugia malayi [26]): 129; inhibition at 0.078 µM (Brugia malayi [28]): 75%
2.5 (≈ 0.728 µg/mL)	2.5 (≈ 0.728 µg/mL)	CCCCNCC(O)COc1cc(=O)oc2ccccc12 (stereo not drawn)	48.9	> 100000	690	75	430				50	>232.5		>144.9	84.9	52.4	100		1	46.9	inhibition at 0.19 µM (Brugia malayi [29]): 8.9%; inhibition at 0.19 µM (Brugia malayi [30]): 1%
5 (≈ 1.63 µg/mL)	2.5 (≈ 0.813 µg/mL)	Cc1ccc(NCC(O)COc2cc(=O)oc3ccccc23)cc1 (stereo not drawn)	8.9	> 100000	1380	75	180	0	31.7	78.9	75	>555.5	100	>72.4	38.6	12.8	75	24.8	75	9.6	
		O=c1cc(OCC(O)CN2CCCCC2)c2ccccc2o1 (stereo not drawn)								23.7			1								MIC (Brugia malayi [3]): inactive; MIC (Brugia malayi [5]): inactive; Activity (Brugia malayi [31]): inactive; Activity (Brugia malayi [32]): inactive
0.31 (≈ 0.151 µg/mL)	0.31 (≈ 0.151 µg/mL)	CCCCCCCC/C=C/CCCCCCCCNCC(O)COc1cc(=O)oc2ccccc12 (stereo not drawn)		> 100000	94		13	16.6	50.9			>7692		>1063				69.4	100	90.4	inhibition at 0.019 µM (Brugia malayi [17]): 50%; inhibition at 0.078 µM (Brugia malayi [18]): 42%; inhibition at 0.156 µM (Brugia malayi [19]): 45%; inhibition at 0.039 µM (Brugia malayi [20]): 50%; inhibition at 0.019 µM (Brugia malayi [21]): 8.5%; inhibition at 0.156 µM (Brugia malayi [22]): 75%; inhibition at 0.039 µM (Brugia malayi [23]): 10.2%; inhibition at 0.078 µM (Brugia malayi [28]): 75%
		O=c1cc(OCC(O)CN2CCOCC2)c2ccccc2o1 (stereo not drawn)								20.1			1								MIC (Brugia malayi [3]): inactive; MIC (Brugia malayi [5]): inactive; Activity (Brugia malayi [31]): inactive; Activity (Brugia malayi [32]): inactive
